Assay results reported in paper PMC6158096 (Molecular microbiology, 2018).
Values joined by “and” are separate entries in the source; they are usually repeats but may differ in a detail not shown here. Equal values may be shown once. Read-outs that look alike come from different tables or passages of the source. Ends that are not written are not given here. * marks the point of attachment. FITC = O=C1OC2(c3ccc(O)cc3Oc3cc(O)ccc32)c2ccc(NC(=S)*)cc21; Ahx = NCCCCCC(=O)O

Key:
ComR = assay: Fluorescence polarization: FITC-labeled XrpA-N1 direct binding to ComR; parameters: species or system Streptococcus mutans; conditions: 10 nM FITC-labeled XrpA-N1, increasing concentrations of sXIP
SppA (SMU.508) = assay: Fluorescence polarization: FITC-labeled XrpA-N1 binding to SppA; parameters: species or system Streptococcus mutans; conditions: 10 nM probe, increasing purified protein, 10 μM sXIP
CcpA = assay: Fluorescence polarization: FITC-labeled XrpA-N1 binding to CcpA; parameters: species or system Streptococcus mutans; conditions: 10 nM probe, increasing purified protein, 10 μM sXIP
[1] = test system: ComR;sXIP (ComS 11-17) (Streptococcus mutans UA159;Streptococcus mutans); assay: fluorescence polarization
[2] = test system: ComR;sXIP (ComS 11-17) (Streptococcus mutans UA159;Streptococcus mutans); assay: fluorescence polarization; remark: listed apart in the source

For GLDWWSL [sXIP], the “effect on fluorescent XrpA-N1 affinity for ComR” value (ComR) was “no effect”.
With “{FITC-Ahx}-MIQNCISILRHFLITLK [FITC-labeled XrpA-N1]” the “interaction of FITC-labeled XrpA-N1 with SppA” value (SppA (SMU.508)) was “neither showed any ability to interact” and the “interaction of FITC-labeled XrpA-N1 with CcpA” value (CcpA) was “neither showed any ability to interact”.
“ATGGGACATTTATGTCCTGTCCCCCACAGGACATAAATGTCCCAT [PcomX ECom-box stem-loop probe]” was tested, and the Kd [1] was 147 nM and the Kd [2] was 169 nM and 165 nM.
